Measurements as given in patent publication US6355799B1, “Substituted benzene compounds, process for their preparation, and herbicidal and defoliant compositions containing them” (ISK Americas Incorporated, priority 1997, dated 2002).

Columns and labels:
Type in all cases: in vivo
[1] = test system: redroot pigweed (Amaranthus retroflexus, AMARE); experiment: Pre-emerge test, greenhouse herbicide activity screening; conditions: pre-emerge, phytotoxicity rating 0-100 at 14 days after application
How it was run: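 Rating: 0–100 visual injury, 14 DAA. Application: acetone, 187 l/ha, 15–1000 g ai/ha, flat-fan track sprayer with nozzle 40–45 cm above soil or canopy. Post-emerge runs used 0.25% v/v surfactant on 2–3 leaf plants.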

[2] = test system: barnyardgrass (Echinochloa crus-galli, ECHCG); experiment: as above; conditions: pre-emerge, phytotoxicity rating 0-100 at 14 days after application
How it was run: (§1)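 Compounds in acetone were track-sprayed at 187 l/ha, 15–1000 g ai/ha, onto sandy loam pots. Pre-emerge seeds were sown one day before spraying, with surface watering afterwards. Post-emerge plants were at the 2–3 leaf stage and sprayed with 0.25% v/v non-ionic surfactant. Injury was rated 0–100 at 14 days.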

[3] = test system: green foxtail (Setaria viridis, SETVI); experiment: as above; conditions: pre-emerge, phytotoxicity rating 0-100 at 14 days after application
How it was run: as §1

[4] = test system: ivyleaf morningglory (Ipomoea hederacea, IPOHE); experiment: as above; conditions: pre-emerge, rate 63 g ai/ha, phytotoxicity rating 0-100 at 14 days after application
How it was run: as §1

[5] = test system: johnsongrass (Sorghum halepense, SORHA); experiment: as above; conditions: pre-emerge, phytotoxicity rating 0-100 at 14 days after application
How it was run: as §1

[6] = test system: lambsquarters (Chenopodium album, CHEAL); experiment: as above; conditions: pre-emerge, phytotoxicity rating 0-100 at 14 days after application
How it was run: as §1

[7] = test system: large crabgrass (Digitaria sanguinalis, DIGSA); experiment: as above; conditions: pre-emerge, phytotoxicity rating 0-100 at 14 days after application
How it was run: as §1

[8] = test system: sicklepod (Cassia obtusifolia, CASOB); experiment: as above; conditions: pre-emerge, phytotoxicity rating 0-100 at 14 days after application
How it was run: as §1

[9] = test system: velvetleaf (Abutilon theophrasti, ABUTH); experiment: as above; conditions: pre-emerge, phytotoxicity rating 0-100 at 14 days after application
How it was run: as §1

[10] = test system: field corn (Zea mays L., var. Dekalb 535, CORN); experiment: Pre-emerge test, crop safety; conditions: crop damage, pre-emerge, phytotoxicity rating 0-100 at 14 days after application
How it was run: (§2)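 Sandy loam pots; pre-emerge: sown 1 d pre-spray, surface-watered after, then bottom-watered. Post-emerge: sown 8–21 d before, 2–3 leaf stage, + 0.25% v/v NIS, bottom-watered. Acetone, 187 l/ha track spray, 15–1000 g ai/ha. 0–100 injury score, day 14.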

[11] = test system: upland rice (Oryza sp., var. Tebonnet, RICE); experiment: Pre-emerge test, crop safety; conditions: crop damage, pre-emerge, phytotoxicity rating 0-100 at 14 days after application
How it was run: as §2

[12] = test system: barnyardgrass (Echinochloa crus-galli, ECHCG); experiment: Post-emerge test, greenhouse herbicide activity screening; conditions: post-emerge, 14 days after application, rating scale 0-100
How it was run: (§3)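 Compounds in acetone were track-sprayed at 15-1000 g ai/ha (187 l/ha) on sandy loam pots: pre-emerge one day after seeding, post-emerge at 2-3 leaf stage with 0.25% v/v non-ionic surfactant. Phytotoxicity was rated 14 days later on a 0 (no damage) to 100 (complete death) scale.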

[13] = test system: green foxtail (Setaria viridis, SETVI); experiment: as above; conditions: post-emerge, 14 days after application, rating scale 0-100
How it was run: as §3

[14] = test system: ivyleaf morningglory (Ipomoea hederacea, IPOHE); experiment: as above; conditions: post-emerge, 14 days after application, rating scale 0-100
How it was run: as §3

[15] = test system: johnsongrass (Sorghum halepense, SORHA); experiment: as above; conditions: post-emerge, 14 days after application, rating scale 0-100
How it was run: as §3

[16] = test system: lambsquarters (Chenopodium album, CHEAL); experiment: as above; conditions: post-emerge, 14 days after application, rating scale 0-100
How it was run: as §3

[17] = test system: large crabgrass (Digitaria sanguinalis, DIGSA); experiment: as above; conditions: post-emerge, 14 days after application, rating scale 0-100
How it was run: as §3

[18] = test system: redroot pigweed (Amaranthus retroflexus, AMARE); experiment: as above; conditions: post-emerge, 14 days after application
How it was run: as §3

[19] = test system: sicklepod (Cassia obtusifolia, CASOB); experiment: as above; conditions: post-emerge, 14 days after application, rating scale 0-100
How it was run: as §3

[20] = test system: velvetleaf (Abutilon theophrasti, ABUTH); experiment: as above; conditions: post-emerge, 14 days after application, rating scale 0-100
How it was run: as §3

[21] = test system: field corn (Zea mays L., var. Dekalb 535, CORN); experiment: Post-emerge test, crop safety; conditions: post-emerge, 14 days after application, rating scale 0-100
How it was run: as §1

[22] = test system: upland rice (Oryza sp., var. Tebonnet, RICE); experiment: Post-emerge test, crop safety; conditions: post-emerge, 14 days after application, rating scale 0-100
How it was run: as §1

**Q.** Cc1c(Cl)cc(F)c(-n2c(=O)cc(C(F)(F)F)n(C)c2=O)c1NC(=O)OCCc1ccccc1 [4-57] was tested. Which “Pre-emerge Herbicidal Activity AMARE” value ([1]; rate 63 g ai/ha) did it give?
**A.** 95

**Q.** And the “Pre-emerge Herbicidal Activity AMARE” value ([1]; rate 250 g ai/ha)?
**A.** 100

**Q.** What about the “Pre-emerge Herbicidal Activity ECHCG” value ([2]; rate 63 g ai/ha) of the same compound?
**A.** 20

**Q.** What about the “Pre-emerge Herbicidal Activity ECHCG” value ([2]; rate 250 g ai/ha) of the same compound?
**A.** 75

**Q.** And the “Pre-emerge Herbicidal Activity SETVI” value ([3]; rate 63 g ai/ha)?
**A.** 80

**Q.** What about the “Pre-emerge Herbicidal Activity SETVI” value ([3]; rate 250 g ai/ha) of the same compound?
**A.** 100

**Q.** What about the “Pre-emerge Herbicidal Activity IPOHE” value [4] of the same compound?
**A.** 50

**Q.** And the “Pre-emerge Herbicidal Activity SORHA” value ([5]; rate 63 g ai/ha)?
**A.** 10

**Q.** What about the “Pre-emerge Herbicidal Activity SORHA” value ([5]; rate 250 g ai/ha) of the same compound?
**A.** 70

**Q.** What about the “Pre-emerge Herbicidal Activity CHEAL” value ([6]; rate 63 g ai/ha) of the same compound?
**A.** 100

**Q.** What about the “Pre-emerge Herbicidal Activity CHEAL” value ([6]; rate 250 g ai/ha) of the same compound?
**A.** 100

**Q.** And the “Pre-emerge Herbicidal Activity DIGSA” value ([7]; rate 63 g ai/ha)?
**A.** 60

**Q.** What about the “Pre-emerge Herbicidal Activity DIGSA” value ([7]; rate 250 g ai/ha) of the same compound?
**A.** 95

**Q.** And the “Pre-emerge Herbicidal Activity CASOB” value ([8]; rate 63 g ai/ha)?
**A.** 10

**Q.** And the “Pre-emerge Herbicidal Activity CASOB” value ([8]; rate 250 g ai/ha)?
**A.** 100

**Q.** And the “Pre-emerge Herbicidal Activity ABUTH” value ([9]; rate 63 g ai/ha)?
**A.** 100

**Q.** What about the “Pre-emerge Herbicidal Activity ABUTH” value ([9]; rate 250 g ai/ha) of the same compound?
**A.** 100

**Q.** What about the “Pre-emerge Herbicidal Activity CORN” value ([10]; rate 63 g ai/ha) of the same compound?
**A.** 0

**Q.** And the “Pre-emerge Herbicidal Activity CORN” value ([10]; rate 250 g ai/ha)?
**A.** 45

**Q.** What about the “Pre-emerge Herbicidal Activity RICE” value ([11]; rate 63 g ai/ha) of the same compound?
**A.** 20

**Q.** What about the “Pre-emerge Herbicidal Activity RICE” value ([11]; rate 250 g ai/ha) of the same compound?
**A.** 70

**Q.** What about the “phytotoxicity rating ECHCG” value ([12]; 63 g ai/ha) of the same compound?
**A.** 30

**Q.** And the “phytotoxicity rating ECHCG” value ([12]; 250 g ai/ha)?
**A.** 40

**Q.** What about the “phytotoxicity rating SETVI” value ([13]; 63 g ai/ha) of the same compound?
**A.** 50

**Q.** What about the “phytotoxicity rating SETVI” value ([13]; 250 g ai/ha) of the same compound?
**A.** 90

**Q.** And the “phytotoxicity rating IPOHE” value ([14]; 63 g ai/ha)?
**A.** 100

**Q.** And the “phytotoxicity rating IPOHE” value ([14]; 250 g ai/ha)?
**A.** 100

**Q.** And the “phytotoxicity rating SORHA” value ([15]; 63 g ai/ha)?
**A.** 30

**Q.** And the “phytotoxicity rating SORHA” value ([15]; 250 g ai/ha)?
**A.** 50

**Q.** And the “phytotoxicity rating CHEAL” value ([16]; 63 g ai/ha)?
**A.** 95

**Q.** And the “phytotoxicity rating CHEAL” value ([16]; 250 g ai/ha)?
**A.** 100

**Q.** And the “phytotoxicity rating DIGSA” value ([17]; 63 g ai/ha)?
**A.** 10

**Q.** And the “phytotoxicity rating DIGSA” value ([17]; 250 g ai/ha)?
**A.** 60

**Q.** And the “phytotoxicity rating AMARE” value ([18]; 63 g ai/ha, rating scale 0-100 (0 no damage, 100 complete death))?
**A.** 100

**Q.** What about the “phytotoxicity rating AMARE” value ([18]; 250 g ai/ha, rating scale 0-100) of the same compound?
**A.** 100

**Q.** What about the “phytotoxicity rating CASOB” value ([19]; 63 g ai/ha) of the same compound?
**A.** 60

**Q.** What about the “phytotoxicity rating CASOB” value ([19]; 250 g ai/ha) of the same compound?
**A.** 100

**Q.** And the “phytotoxicity rating ABUTH” value ([20]; 63 g ai/ha)?
**A.** 100

**Q.** What about the “phytotoxicity rating ABUTH” value ([20]; 250 g ai/ha) of the same compound?
**A.** 100

**Q.** What about the “phytotoxicity rating CORN (crop damage)” value ([21]; 63 g ai/ha) of the same compound?
**A.** 40

**Q.** What about the “phytotoxicity rating CORN (crop damage)” value ([21]; 250 g ai/ha) of the same compound?
**A.** 90

**Q.** And the “phytotoxicity rating RICE (crop damage)” value ([22]; 63 g ai/ha)?
**A.** 50

**Q.** And the “phytotoxicity rating RICE (crop damage)” value ([22]; 250 g ai/ha)?
**A.** 80
